In ChEMBL document CHEMBL3745675, “Design and optimization of selective azaindole amide M1 positive allosteric modulators” (Bioorg Med Chem Lett, 2016):

How the values were obtained:
[1] = Permeability in RRCK cells; format: ADME, cell-based, Canis lupus familiaris, MDCKII-LE; conditions: dog, MDCK; read-out: permeability
[2] = Ratio of unbound AUC in brain to plasma in C57BL/6j mouse; format: ADME, organism-based; conditions: read-out: Ratio AUC
Plasma = test: Fraction unbound in C57BL/6j mouse plasma; format: ADME, cell-free

Molecule `O=C(N[C@H]1CCOC[C@@H]1O)c1cn(Cc2ccc(-c3cc[nH]n3)cc2)c2cccnc12` has a Papp [1] of 14 ×10⁻⁶ cm/s.
For `O=C(N[C@H]1CCOC[C@@H]1O)c1cn(Cc2ccc(-n3cccn3)cc2)c2cccnc12`, the Papp [1] was 21.7 ×10⁻⁶ cm/s, the Kp uu [2] was 0.04 and the “Cp(f)” value (Plasma) was 0.13 nM.
